Reference: patent US20230333109A1, “COMPOSITION FOR DIAGNOSING INFECTIOUS DISEASES COMPRISING AGENT FOR MEASURING EXPRESSION LEVEL OF SREBP2” (KOREA RESEARCH INSTITUTE OF BIOSCIENCE AND BIOTECHNOLOGY, priority 2020, published 2023)

Test system: HUVECs
Assay: Vascular barrier destruction in HUVECs under LPS stimulation (FIG. 4G)
Assay type: cell-based

CCN(CC)Cc1ccc(C(=O)N(CCc2ccccc2OC)[C@@H]2CCNC2)cc1 [PF-429242] was tested, and the vascular barrier destruction was “inhibited vascular bather destruction”.
